EC50 data for 13 molecules are collected here from US11180483B2, “Substituted reverse pyrimidine Bmi-1 inhibitors” (PTC Therapeutics, Inc., priority 2012, dated 2021).

This test concerns Bmi-1. Nature of the test: Sandwich ELISA Assay (Bmi-1 ELISA) in HT-1080 cells. The test is classed as cell-based. A digest of the protocol:
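HT-1080 cells exposed to compound in 0.5% final DMSO for 40-48 h at 37 °C, then lysed. Bmi-1 was quantified by sandwich ELISA: mouse monoclonal capture, rabbit anti-Bmi-1 detection, HRP anti-rabbit and TMB. Read at OD450 (OD570 reference) against a recombinant GST-Bmi-1 standard curve (0-8000 pg/mL).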
In general terms: ELISA stands for enzyme-linked immunosorbent assay.
`CCc1nc2c(F)cc(F)cc2n1-c1nc(N)c(F)c(Nc2ccc(OC(F)F)c(F)c2)n1` [Cpd 130, N-[4-(difluoromethoxy)-3-fluorophenyl]-2-(2-ethyl-4,6-difluoro-1H-benzimidazol-1-yl)-5-fluoropyrimidine-4,6-diamine]: the EC50 is 10 to 100 nM.

`Cc1nc2c(F)cc(F)cc2n1-c1nc(N)c(F)c(Nc2ccc(OC(F)F)cc2)n1` [Cpd 131, N-[4-(difluoromethoxy)phenyl]-2-(4,6-difluoro-2-methyl-1H-benzimidazol-1-yl)-5-fluoropyrimidine-4,6-diamine] yielded an EC50 of 10 to 100 nM.

`CCc1nc2c(F)cc(F)cc2n1-c1nc(N)c(F)c(Nc2ccc(OC(F)F)cc2)n1` [Cpd 132, N-[4-(difluoromethoxy)phenyl]-2-(2-ethyl-4,6-difluoro-1H-benzimidazol-1-yl)-5-fluoropyrimidine-4,6-diamine] displayed an EC50 of 10 to 100 nM.

Consider `Cc1nc2cc(F)c(F)cc2n1-c1nc(N)c(F)c(Nc2ccc(OC(F)F)cc2)n1` [Cpd 133, N-[4-(difluoromethoxy)phenyl]-2-(5,6-difluoro-2-methyl-1H-benzimidazol-1-yl)-5-fluoropyrimidine-4,6-diamine], for which the EC50 was in the range of 10 to 100 nM.

The molecule `Cc1nc2c(F)cccc2n1-c1nc(N)c(F)c(Nc2ccc(C(F)(F)F)cc2)n1` [Cpd 134, 5-fluoro-2-(4-fluoro-2-methyl-1H-benzimidazol-1-yl)-N-[4-(trifluoromethyl)phenyl]pyrimidine-4,6-diamine] had an EC50 of 10 to 100 nM.

As for `Cc1nc2c(F)cccc2n1-c1nc(N)c(F)c(Nc2ccc(OC(F)F)cc2)n1` [Cpd 135, N-[4-(difluoromethoxy)phenyl]-5-fluoro-2-(4-fluoro-2-methyl-1H-benzimidazol-1-yl)pyrimidine-4,6-diamine], the half-maximal effective concentration (EC50) was 10 to 100 nM.

The molecule `Cc1nc2c(F)cccc2n1-c1nc(N)c(F)c(Nc2ccc(OC(F)F)c(F)c2)n1` [Cpd 136, N-[4-(difluoromethoxy)-3-fluorophenyl]-5-fluoro-2-(4-fluoro-2-methyl-1H-benzimidazol-1-yl)pyrimidine-4,6-diamine] displayed an EC50 of 10 to 100 nM.

Regarding `Cc1nc2ncccc2n1-c1nc(N)c(F)c(Nc2ccc(C(F)(F)F)cc2)n1` [Cpd 137, 5-fluoro-2-(2-methyl-1H-imidazo[4,5-b]pyridin-1-yl)-N-[4-(trifluoromethyl]phenyl]pyrimidine-4,6-diamine], the EC50 was in the range of 10 to 100 nM.

`Cc1nc2ncccc2n1-c1nc(N)c(F)c(Nc2ccc(OC(F)F)cc2)n1` [Cpd 138, N-[4-(difluoromethoxy)phenyl]-5-fluoro-2-(2-methyl-1H-imidazo[4,5-b]pyridin-1-yl)pyrimidine-4,6-diamine]: the EC50 is 10 to 100 nM.

`Cc1nc2ncccc2n1-c1nc(N)c(F)c(Nc2ccc(OC(F)F)c(F)c2)n1` [Cpd 139, N-[4-(difluoromethoxy)-3-fluorophenyl]-5-fluoro-2-(2-methyl-1H-imidazo[4,5-b]pyridin-1-yl)pyrimidine-4,6-diamine] yielded an EC50 of 100 to 3000 nM.

As for `Nc1nc(-n2c(C3CC3)nc3c(F)cccc32)nc(Nc2ccc(C(F)(F)F)cc2)c1F` [Cpd 140, 2-(2-cyclopropyl-4-fluoro-1H-benzimidazol-1-yl)-5-fluoro-N-[4-(trifluoromethyl]phenyl]pyrimidine-4,6-diamine], the EC50 was in the range of 10 to 100 nM.

On to `Nc1nc(-n2c(C3CC3)nc3c(F)cccc32)nc(Nc2ccc(OC(F)F)cc2)c1F` [Cpd 141, 2-(2-cyclopropyl-4-fluoro-1H-benzimidazol-1-yl)-N-[4-(difluoromethoxy)phenyl]-5-fluoropyrimidine-4,6-diamine], for which the EC50 was in the range of 10 to 100 nM.

Consider `Nc1nc(-n2c(C3CC3)nc3c(F)cccc32)nc(Nc2ccc(OC(F)F)c(F)c2)c1F` [Cpd 142, 2-(2-cyclopropyl-4-fluoro-1H-benzimidazol-1-yl)-N-[4-(difluoromethoxy)-3-fluorophenyl]-5-fluoropyrimidine-4,6-diamine], for which the EC50 lay within 10 to 100 nM.

The EC50 is the concentration needed to bring the measured effect to its halfway point.
